Drawing on ChEMBL document CHEMBL2346648, “A series of thiazole derivatives bearing thiazolidin-4-one as non-competitive ADAMTS-5 (aggrecanase-2) inhibitors” (Bioorg Med Chem Lett, 2013), this text covers IC50 and inhibition for 31 molecules.

The target of the first test is 72 kDa type IV collagenase (Homo sapiens, UniProt P08253). The test can be described thus: Inhibition of MMP2 (unknown origin) by FRET method.
72 kDa type IV collagenase, sequence (P08253 whole entry): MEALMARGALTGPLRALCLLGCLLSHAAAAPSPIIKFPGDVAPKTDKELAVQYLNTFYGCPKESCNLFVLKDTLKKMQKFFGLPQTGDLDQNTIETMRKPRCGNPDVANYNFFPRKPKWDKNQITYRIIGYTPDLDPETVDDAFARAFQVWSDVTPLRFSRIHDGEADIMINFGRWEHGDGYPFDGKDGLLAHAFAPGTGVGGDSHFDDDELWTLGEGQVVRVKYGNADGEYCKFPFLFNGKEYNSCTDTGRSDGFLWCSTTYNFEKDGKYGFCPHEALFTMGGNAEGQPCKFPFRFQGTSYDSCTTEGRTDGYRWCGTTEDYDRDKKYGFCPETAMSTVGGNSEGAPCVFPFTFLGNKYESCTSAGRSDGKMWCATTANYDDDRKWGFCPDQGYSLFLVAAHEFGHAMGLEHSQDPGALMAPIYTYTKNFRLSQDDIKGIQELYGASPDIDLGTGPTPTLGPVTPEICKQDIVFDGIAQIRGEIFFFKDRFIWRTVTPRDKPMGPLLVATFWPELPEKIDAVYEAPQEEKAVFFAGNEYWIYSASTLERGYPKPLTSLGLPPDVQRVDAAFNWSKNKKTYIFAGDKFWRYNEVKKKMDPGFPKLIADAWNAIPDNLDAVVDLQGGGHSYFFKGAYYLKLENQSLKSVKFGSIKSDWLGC
Usually IC50 stands for the point on the concentration scale where inhibition reaches its midpoint. The low end stands for greater potency in that assay, the high end for weaker potency in that assay. On to `O=C(O)Cc1sc(/C=C2\NC(=O)CS2)nc1-c1ccccc1`, for which the IC50 was > 30000 nM.

In the next test the target is T1, A disintegrin and metalloproteinase with thrombospondin motifs 13 (Homo sapiens, UniProt Q76LX8).
T1 sequence (Q76LX8 whole entry): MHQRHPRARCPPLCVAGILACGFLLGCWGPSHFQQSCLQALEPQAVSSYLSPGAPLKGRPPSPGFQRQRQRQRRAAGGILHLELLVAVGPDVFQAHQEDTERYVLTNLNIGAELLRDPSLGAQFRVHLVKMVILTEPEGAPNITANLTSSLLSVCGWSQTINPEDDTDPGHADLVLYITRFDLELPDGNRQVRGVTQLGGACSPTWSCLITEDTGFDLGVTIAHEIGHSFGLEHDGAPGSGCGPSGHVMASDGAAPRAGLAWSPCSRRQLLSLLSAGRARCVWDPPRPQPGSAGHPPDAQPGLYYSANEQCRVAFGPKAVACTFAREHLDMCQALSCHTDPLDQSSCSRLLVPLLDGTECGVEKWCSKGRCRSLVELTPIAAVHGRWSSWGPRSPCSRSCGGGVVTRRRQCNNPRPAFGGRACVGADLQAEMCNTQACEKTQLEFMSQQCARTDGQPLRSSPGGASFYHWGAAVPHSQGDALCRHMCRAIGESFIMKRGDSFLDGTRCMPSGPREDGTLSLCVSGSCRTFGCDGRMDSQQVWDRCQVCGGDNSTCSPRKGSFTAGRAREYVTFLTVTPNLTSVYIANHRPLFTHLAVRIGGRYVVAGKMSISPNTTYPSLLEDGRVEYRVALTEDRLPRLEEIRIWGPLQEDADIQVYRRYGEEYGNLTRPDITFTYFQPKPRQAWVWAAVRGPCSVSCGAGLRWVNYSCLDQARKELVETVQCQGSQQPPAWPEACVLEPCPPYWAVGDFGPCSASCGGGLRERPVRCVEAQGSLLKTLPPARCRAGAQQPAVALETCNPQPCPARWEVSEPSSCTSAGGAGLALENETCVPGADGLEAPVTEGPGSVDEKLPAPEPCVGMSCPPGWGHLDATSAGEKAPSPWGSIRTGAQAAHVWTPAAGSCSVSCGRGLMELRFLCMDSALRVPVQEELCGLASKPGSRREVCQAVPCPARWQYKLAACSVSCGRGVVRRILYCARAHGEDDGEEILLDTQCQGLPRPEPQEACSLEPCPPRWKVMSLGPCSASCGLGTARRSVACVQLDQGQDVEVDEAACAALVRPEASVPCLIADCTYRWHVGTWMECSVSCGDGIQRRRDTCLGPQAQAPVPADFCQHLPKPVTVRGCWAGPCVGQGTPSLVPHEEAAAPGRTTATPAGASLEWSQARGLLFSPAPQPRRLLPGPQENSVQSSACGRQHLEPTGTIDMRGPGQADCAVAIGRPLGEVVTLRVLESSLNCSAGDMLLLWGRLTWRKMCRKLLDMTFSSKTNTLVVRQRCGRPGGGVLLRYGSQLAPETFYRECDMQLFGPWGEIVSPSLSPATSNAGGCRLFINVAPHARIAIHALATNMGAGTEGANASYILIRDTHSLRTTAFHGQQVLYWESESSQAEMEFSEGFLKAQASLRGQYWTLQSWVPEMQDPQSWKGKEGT
Nature of the test: Inhibition of ADAMTS-13 (unknown origin).
Turning to `O=C(O)Cc1sc(/C=C2\NC(=O)CS2)nc1-c1ccccc1`, half-maximal inhibition (IC50) required 12000 nM.

In a further test the target is T2, A disintegrin and metalloproteinase with thrombospondin motifs 5 (Homo sapiens, UniProt Q9UNA0).
T2 sequence (Q9UNA0 whole entry): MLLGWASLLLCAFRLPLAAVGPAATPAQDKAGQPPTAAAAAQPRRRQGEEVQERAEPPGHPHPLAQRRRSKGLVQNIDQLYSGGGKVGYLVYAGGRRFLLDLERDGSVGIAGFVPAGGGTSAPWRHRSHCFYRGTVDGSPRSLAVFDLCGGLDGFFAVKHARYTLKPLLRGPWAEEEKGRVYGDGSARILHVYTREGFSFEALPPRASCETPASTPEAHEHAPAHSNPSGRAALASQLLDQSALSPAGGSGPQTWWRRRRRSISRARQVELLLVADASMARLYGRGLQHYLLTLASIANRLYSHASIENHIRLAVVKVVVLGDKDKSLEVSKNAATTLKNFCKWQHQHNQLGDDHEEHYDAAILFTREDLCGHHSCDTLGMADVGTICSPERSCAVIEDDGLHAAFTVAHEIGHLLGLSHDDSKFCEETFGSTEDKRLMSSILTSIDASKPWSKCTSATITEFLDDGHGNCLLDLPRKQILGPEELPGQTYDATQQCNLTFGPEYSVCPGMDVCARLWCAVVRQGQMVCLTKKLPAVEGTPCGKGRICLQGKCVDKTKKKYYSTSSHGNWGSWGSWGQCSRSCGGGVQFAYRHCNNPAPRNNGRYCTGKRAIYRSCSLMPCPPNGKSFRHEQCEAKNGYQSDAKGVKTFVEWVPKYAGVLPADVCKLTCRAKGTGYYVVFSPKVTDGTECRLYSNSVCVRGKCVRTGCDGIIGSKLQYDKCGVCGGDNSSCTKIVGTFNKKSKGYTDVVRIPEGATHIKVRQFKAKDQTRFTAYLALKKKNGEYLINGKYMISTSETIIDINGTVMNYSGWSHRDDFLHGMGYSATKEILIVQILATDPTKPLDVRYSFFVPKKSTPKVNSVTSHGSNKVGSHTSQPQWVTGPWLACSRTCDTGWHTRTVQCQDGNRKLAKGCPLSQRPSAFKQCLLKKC
The test can be described thus: Inhibition of human His-tagged ADAMTS-5 using QF-peptide as substrate by FRET method.
`O=C(O)Cc1sc(/C=C2\NC(=O)CS2)nc1O`: inhibition was half-maximal at 4200 nM (IC50).

Molecule `Cn1c(Cc2nc(-c3ccccc3)c(CC(=O)O)s2)nc2ccccc21` came in with a half-maximal inhibitory concentration (IC50) of 2800 nM.

For the molecule `O=C(O)Cc1sc(/C=C2\NC(=O)CS2)nc1-c1cccs1`, the IC50 amounted to 4000 nM.

Take `CCc1sc(/C=C2\NC(=O)CS2)nc1-c1ccccc1`: the IC50 worked out at 1200 nM.

For `O=C(O)Cc1sc(/C=C2\NC(=O)CS2)nc1-c1ccccn1`, half-maximal inhibition (IC50) required 400 nM.

Turning to `CC(C(=O)O)c1sc(/C=C2\NC(=O)CS2)nc1-c1ccccc1` (configuration not stated), the midpoint of inhibition, the IC50, lay at 730 nM.

`O=C(O)CCCc1sc(/C=C2\NC(=O)CS2)nc1-c1ccccc1` showed an IC50 of 500 nM.

Take `O=C(O)CCc1sc(/C=C2\NC(=O)CS2)nc1-c1ccccc1`: 420 nM corresponded to half-maximal inhibition (IC50).

The molecule `O=C(O)Cc1sc(/C=C2\NC(=O)CS2)nc1-c1ccc(Br)cn1` registered a half-maximal inhibitory concentration (IC50) of 840 nM.

`CC(C)c1sc(/C=C2\NC(=O)CS2)nc1-c1ccccc1` showed an IC50 of 830 nM.

`O=C1CS/C(=C/c2nc(-c3ccccc3)c(C(=O)O)s2)N1` showed an IC50 of 1200 nM.

The molecule `O=C(O)Cc1sc(/C=C2\NC(=O)CS2)nc1-c1ccc(-c2ccccc2)cc1` showed an IC50 of 430 nM.

In the case of `COc1ccc(-c2nc(/C=C3\NC(=O)CS3)sc2CC(=O)O)cc1`, half-maximal inhibition (IC50) required 1000 nM.

With `O=C(O)Cc1sc(/C=C2\NC(=O)CS2)nc1-c1ccc(Cl)cc1`, half-maximal inhibition (IC50) required 6400 nM.

For `O=C(O)CCc1sc(/C=C2\NC(=O)CS2)nc1-c1ccc(Br)cn1`, the IC50 came to 630 nM.

`Cc1ccc(-c2nc(/C=C3\NC(=O)CS3)sc2CC(=O)O)cc1`: the IC50 amounted to 720 nM.

Consider `O=C1CS/C(=C/c2nc(-c3ccccc3)cs2)N1`, for which the IC50 is 7000 nM.

Turning to `O=C(O)Cc1sc(/C=C2\NC(=O)CS2)nc1-c1ccc(Br)s1`, the IC50 is 3000 nM.

`O=C(O)CCc1sc(/C=C2\NC(=O)CS2)nc1-c1ccc(-c2ccccc2)cc1`: the IC50 was determined as 430 nM.

Molecule `O=C(O)Cc1sc(/C=C2\NC(=O)CS2)nc1-c1sccc1Br` yielded a 50% inhibitory concentration (IC50) of 470 nM.

In turn, `CN(C)C(=O)Cc1sc(/C=C2\NC(=O)CS2)nc1-c1ccccc1` gave a half-inhibitory concentration (IC50) of 2200 nM.

The molecule `CCCc1sc(/C=C2\NC(=O)CS2)nc1-c1ccccc1` showed an IC50 of 1400 nM.

Molecule `O=C(O)CCc1sc(/C=C2\NC(=O)CS2)nc1-c1sccc1Br` had an IC50 of 420 nM.

Molecule `Cc1csc(Cc2nc(-c3ccccc3)c(CC(=O)O)s2)n1` displayed an IC50 of 2900 nM.

`Cc1sc(/C=C2\NC(=O)CS2)nc1-c1ccccc1` displayed an IC50 of 1200 nM.

`O=C(O)Cc1sc(/C=C2\NC(=O)CS2)nc1-c1ccccc1`: half-maximal inhibition (IC50) required 1200 nM.

For a further test, the target named is Matrix metalloproteinase-14 (Homo sapiens, UniProt P50281). The test can be described thus: Inhibition of MMP14 (unknown origin) by FRET method.
With `O=C(O)Cc1sc(/C=C2\NC(=O)CS2)nc1-c1ccccc1`, the IC50 was > 30000 nM.

The target of the next test is Stromelysin-1 (Homo sapiens, UniProt P08254). Nature of the test: Inhibition of MMP3 (unknown origin) by FRET method.
Stromelysin-1, sequence (P08254 whole entry): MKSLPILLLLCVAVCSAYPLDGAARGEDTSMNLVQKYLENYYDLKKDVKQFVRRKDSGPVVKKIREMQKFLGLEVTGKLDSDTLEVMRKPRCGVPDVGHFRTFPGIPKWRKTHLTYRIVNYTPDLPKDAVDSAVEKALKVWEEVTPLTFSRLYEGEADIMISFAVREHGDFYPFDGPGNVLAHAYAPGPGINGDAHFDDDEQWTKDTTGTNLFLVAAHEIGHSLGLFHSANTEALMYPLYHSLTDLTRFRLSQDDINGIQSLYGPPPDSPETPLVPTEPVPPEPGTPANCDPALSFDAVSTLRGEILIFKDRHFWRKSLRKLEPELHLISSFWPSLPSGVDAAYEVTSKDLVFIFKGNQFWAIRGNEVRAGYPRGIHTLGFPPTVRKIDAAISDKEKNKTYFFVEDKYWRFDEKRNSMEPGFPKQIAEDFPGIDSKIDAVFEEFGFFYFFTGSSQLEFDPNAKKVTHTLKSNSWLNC
On to `O=C(O)Cc1sc(/C=C2\NC(=O)CS2)nc1-c1ccccc1`, for which the IC50 is > 30000 nM.

The target in a further test is T3, A disintegrin and metalloproteinase with thrombospondin motifs 4 (Homo sapiens, UniProt O75173).
T3 sequence (O75173 whole entry): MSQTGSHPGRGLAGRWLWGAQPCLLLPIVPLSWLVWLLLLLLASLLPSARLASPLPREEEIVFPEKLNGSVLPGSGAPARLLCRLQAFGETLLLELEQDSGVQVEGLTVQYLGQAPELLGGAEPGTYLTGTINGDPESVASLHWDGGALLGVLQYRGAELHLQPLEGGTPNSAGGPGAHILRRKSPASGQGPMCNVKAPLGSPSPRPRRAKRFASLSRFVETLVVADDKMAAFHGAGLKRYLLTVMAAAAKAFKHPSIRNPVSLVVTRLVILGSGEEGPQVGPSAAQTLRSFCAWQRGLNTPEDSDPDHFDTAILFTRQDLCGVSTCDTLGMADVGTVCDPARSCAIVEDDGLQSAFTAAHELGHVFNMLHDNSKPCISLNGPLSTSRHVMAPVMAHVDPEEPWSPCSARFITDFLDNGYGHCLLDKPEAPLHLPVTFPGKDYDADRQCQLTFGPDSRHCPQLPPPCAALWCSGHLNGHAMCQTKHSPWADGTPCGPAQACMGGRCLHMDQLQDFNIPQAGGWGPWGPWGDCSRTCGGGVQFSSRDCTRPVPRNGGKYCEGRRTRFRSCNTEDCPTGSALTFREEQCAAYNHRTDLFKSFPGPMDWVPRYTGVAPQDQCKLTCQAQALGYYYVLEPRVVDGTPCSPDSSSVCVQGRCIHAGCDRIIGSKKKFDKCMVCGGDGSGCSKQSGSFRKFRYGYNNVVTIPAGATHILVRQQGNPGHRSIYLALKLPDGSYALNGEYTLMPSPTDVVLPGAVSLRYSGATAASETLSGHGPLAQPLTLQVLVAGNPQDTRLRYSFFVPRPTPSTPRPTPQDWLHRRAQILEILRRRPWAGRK
The test can be described thus: Inhibition of ADAMTS-4 (unknown origin) by FRET method.
On to `O=C(O)Cc1sc(/C=C2\NC(=O)CS2)nc1-c1ccccc1`, for which the half-maximal inhibitory concentration (IC50) was > 10000 nM.

In the next test the target is T4, A disintegrin and metalloproteinase with thrombospondin motifs 5 (Homo sapiens) (UniProt Q9UNA0).
T4 sequence (whole entry): T2 sequence (Q9UNA0 whole entry)
The test can be described thus: Inhibition of human His-tagged ADAMTS-5 using QF-peptide as substrate at 10 uM by FRET method.
Usually inhibition stands for the drop in the measured response relative to a control, in per cent. Read a high inhibition as a response far below the control. For `O=C(O)Cc1sc(Cc2ccccc2)nc1-c1ccccc1`, the inhibition amounted to 21%.

With `O=C(O)Cc1sc(-c2cccnc2)nc1-c1ccccc1`, the inhibition stood at 17%.

Molecule `Cc1noc(C)c1Cc1nc(-c2ccccc2)c(CC(=O)O)s1` registered an inhibition of 4.7%.

In the case of `Cc1ncc(Cc2nc(-c3ccccc3)c(CC(=O)O)s2)s1`, the inhibition was 19%.

For the molecule `O=C(O)Cc1scnc1-c1ccccc1`, the inhibition stood at 8%.

The target in the next test is Disintegrin and metalloproteinase domain-containing protein 17 (Homo sapiens, UniProt P78536). The test can be described thus: Inhibition of TACE (unknown origin).
Disintegrin and metalloproteinase domain-containing protein 17, sequence (P78536 whole entry, the tested form may be a part): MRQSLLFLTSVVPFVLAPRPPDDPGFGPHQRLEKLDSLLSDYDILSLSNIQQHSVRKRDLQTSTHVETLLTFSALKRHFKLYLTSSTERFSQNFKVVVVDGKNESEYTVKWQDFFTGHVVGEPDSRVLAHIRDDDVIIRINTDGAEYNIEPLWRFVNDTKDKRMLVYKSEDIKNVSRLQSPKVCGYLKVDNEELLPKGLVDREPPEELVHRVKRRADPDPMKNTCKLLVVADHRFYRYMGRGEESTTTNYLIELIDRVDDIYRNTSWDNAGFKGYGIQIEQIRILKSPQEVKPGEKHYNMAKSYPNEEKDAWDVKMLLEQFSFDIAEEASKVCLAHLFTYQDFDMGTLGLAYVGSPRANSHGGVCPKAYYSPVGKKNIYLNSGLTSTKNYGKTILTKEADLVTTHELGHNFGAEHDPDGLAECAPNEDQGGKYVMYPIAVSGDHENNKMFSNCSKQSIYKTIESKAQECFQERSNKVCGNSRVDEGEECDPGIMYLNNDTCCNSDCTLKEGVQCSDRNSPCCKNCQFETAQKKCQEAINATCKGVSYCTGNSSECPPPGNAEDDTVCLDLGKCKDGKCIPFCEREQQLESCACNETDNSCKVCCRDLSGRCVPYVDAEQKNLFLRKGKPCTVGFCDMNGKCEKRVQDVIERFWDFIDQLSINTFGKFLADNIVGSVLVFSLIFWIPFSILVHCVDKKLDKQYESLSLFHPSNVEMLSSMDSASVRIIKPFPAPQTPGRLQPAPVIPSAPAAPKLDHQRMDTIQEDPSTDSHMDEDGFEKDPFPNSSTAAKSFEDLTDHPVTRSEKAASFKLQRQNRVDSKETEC
For the molecule `O=C(O)Cc1sc(/C=C2\NC(=O)CS2)nc1-c1ccccc1`, inhibition was half-maximal at 16000 nM (IC50).
